Laboratory results taken from patent publication US11819489B2 (priority 2017, dated 2023).
Like-named read-outs stand apart in the source and are kept apart here.

Tests used:
K562 cells [1] = test: cells; details: Homo sapiens, K562, 24 h
HL-60 cells [2] = test: cells; details: Homo sapiens, HL-60, 24 h
KARPAS 45 cells [3] = test: cells; details: Homo sapiens, 24 h
HepG2 cells [4] = test: cells; details: Homo sapiens, HepG2, 24 h
[5] = tested on: Chinese hamster (CH) solid tumour cells; test: cells; details: Cricetulus griseus, 24 h
[6] = tested on: human peripheral blood mononuclear cells (hPBMC); test: cells; details: PBMC, 24 h
in vitro [7] = details: human
in vitro [8] = details: Chinese hamster
K562 cells [9] = test: Cellular As uptake, K562 cells; type: cell-based, human; details: K562, 24-h treatment, 1.5 μM As
Description: (§1) FIG. 24 is a graphical summary of the cellular As concentrations associated with the specified cell lines following 24-h treatment (1.5 μM As). The results are represented as the mean and standard deviation of triplicate samples.
(§2) FIG. 24 summarises the cellular As concentrations associated with the different cell types following 24-h treatment with the various As compounds (1.5 μM As). The leukemia cell lines, K562, HL-60, Kasumi-1 and KARPAS 45, are depicted in red (lighter of the filled in blocks), and the non-leukemia cell types are depicted in black (darkest shading), with the cancerous adherent cells, HepG2, in the diagonal stripes, and the normal cells, hPBMC, in solid black.

HL-60 cells [10] = test: Cellular As uptake, HL-60 cells; type: cell-based, human; details: HL-60, 24-h treatment, 1.5 μM As
Description: as §1, §2

Kasumi-1 cells [11] = test: Cellular As uptake, Kasumi-1 cells; type: cell-based, human; details: Kasumi-1, 24-h treatment, 1.5 μM As
Description: as §1, §2

KARPAS 45 cells [12] = test: Cellular As uptake, KARPAS 45 cells; type: cell-based, human; details: 1.5 μM As
Description: as §1, §2

HepG2 cells [13] = type: cell-based, human
hPBMC = test: Cellular As uptake, hPBMC; type: cell-based, human; details: 24-h treatment, 1.5 μM As
Description: as §1, §2

K562 cells [14] = tested on: K562 cells
KARPAS 45 cells [15] = tested on: KARPAS 45 cells
[16] = tested on: human peripheral blood mononuclear cells (hPBMC)
Kasumi-1 cells [17] = test: cells; details: Homo sapiens, Kasumi 1, 24 h

Compound | IC50 (K562 cells [1]) [µM] | viability at 1000 µM (K562 cells [1]; read-out: K562 cells still viable) [%] | IC50 (HL-60 cells [2]) [µM] | IC50 (KARPAS 45 cells [3]) [µM] | IC50 (HepG2 cells [4]) [µM] | IC50 [5] [µM] | IC50 [6] [µM] | viability (in vitro [7]) [%] | viability (in vitro [8]) [%] | cellular As concentration (K562 cells [9]) | cellular As concentration (HL-60 cells [10]) | cellular As concentration (Kasumi-1 cells [11]) | cellular As concentration in KARPAS 45 cells, times more than in HepG2 cells (KARPAS 45 cells [12]; 24-h treatment) [times] | cellular As concentration (KARPAS 45 cells [12]; KARPAS 45, 24-h treatment) | cellular As concentration (HepG2 cells [13]) | cellular As concentration (hPBMC) | IC50 (K562 cells [14]) [µM] | IC50 (KARPAS 45 cells [15]) [µM] | IC50 [16] [µM] | IC50 (Kasumi-1 cells [17]) [µM]
CC(=O)Nc1cc([As](=O)(O)O)ccc1O [Acetarsol] | > 1000 | 60.5 | > 1000 | > 1000 | > 1000 | > 1000 | > 1000 | ~100 | ~100 |  |  |  |  |  |  |  |  |  |  | 
O=[As]O [Arsenite, Sodium meta-arsenite] | 18.6 ± 0.49 |  | 20 ± 1 | 66.2 ± 2.6 | 89 ± 1 | 26.1 ± 0.8 | 40.1 ± 7.7 |  |  | < 4×10^−14 g/cell | < 4×10^−14 g/cell | < 4×10^−14 g/cell | 2.2 | < 4×10^−14 g/cell | < 4×10^−14 g/cell | < 4×10^−14 g/cell | 18.6 ± 0.5 | 66 ± 3 | 40 ± 8 | 61.2 ± 0.6
